Results as given in ChEMBL document CHEMBL1201862, “PubChem BioAssay data set” (2004).
Activity calls are given as the source filed them.

Assays:
[1] = mammalian cell viability loss – Alamar Blue, dry powder, cytotoxicity control for antifungal single agent project, dose response (AID 602188); assay type: functional, cell-based
[2] = molecular target: ATP-binding cassette sub-family B member 6 (Homo sapiens, UniProt Q9NP58); assay: concentration-dependent ABCB6 porphyrin transport blockade – K562-ABCB6 cells, flow cytometry, cherry pick 1, dose response (AID 623955); assay type: functional; details: read-out: EC50_MICROM
Sequence of ATP-binding cassette sub-family B member 6 (Q9NP58 whole entry): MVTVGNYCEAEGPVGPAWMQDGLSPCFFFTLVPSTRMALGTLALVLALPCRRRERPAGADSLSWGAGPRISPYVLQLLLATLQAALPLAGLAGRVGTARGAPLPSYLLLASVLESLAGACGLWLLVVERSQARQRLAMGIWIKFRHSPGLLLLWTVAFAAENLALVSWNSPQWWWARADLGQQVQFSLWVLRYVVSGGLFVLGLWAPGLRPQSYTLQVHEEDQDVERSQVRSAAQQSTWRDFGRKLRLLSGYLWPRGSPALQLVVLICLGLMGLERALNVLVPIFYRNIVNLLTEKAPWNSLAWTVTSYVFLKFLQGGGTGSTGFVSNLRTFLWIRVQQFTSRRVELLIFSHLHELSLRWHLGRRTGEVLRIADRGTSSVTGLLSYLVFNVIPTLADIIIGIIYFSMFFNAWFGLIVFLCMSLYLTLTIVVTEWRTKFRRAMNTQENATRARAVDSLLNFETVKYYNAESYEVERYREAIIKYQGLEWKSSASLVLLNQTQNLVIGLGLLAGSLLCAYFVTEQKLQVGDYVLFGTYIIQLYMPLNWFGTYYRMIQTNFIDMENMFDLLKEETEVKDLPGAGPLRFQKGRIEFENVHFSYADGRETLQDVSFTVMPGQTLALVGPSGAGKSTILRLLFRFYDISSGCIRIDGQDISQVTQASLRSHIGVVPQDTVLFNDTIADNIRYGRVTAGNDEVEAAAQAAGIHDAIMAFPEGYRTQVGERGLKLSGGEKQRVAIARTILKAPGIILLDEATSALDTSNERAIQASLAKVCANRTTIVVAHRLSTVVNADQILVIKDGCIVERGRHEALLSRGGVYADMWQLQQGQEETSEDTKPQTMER

[3] = molecular target: Melanin-concentrating hormone receptor 1 (Homo sapiens, UniProt Q99705); assay: Late-stage fluorescence-based counterscreen for antagonists of the G-protein coupled receptor 7 (GPR7): cell-based dose response assay to identify antagonists of the melanin-concentrating hormone receptor 1 (MCHR1) Set 5.; assay type: functional
Sequence of Melanin-concentrating hormone receptor 1 (Q99705 whole entry): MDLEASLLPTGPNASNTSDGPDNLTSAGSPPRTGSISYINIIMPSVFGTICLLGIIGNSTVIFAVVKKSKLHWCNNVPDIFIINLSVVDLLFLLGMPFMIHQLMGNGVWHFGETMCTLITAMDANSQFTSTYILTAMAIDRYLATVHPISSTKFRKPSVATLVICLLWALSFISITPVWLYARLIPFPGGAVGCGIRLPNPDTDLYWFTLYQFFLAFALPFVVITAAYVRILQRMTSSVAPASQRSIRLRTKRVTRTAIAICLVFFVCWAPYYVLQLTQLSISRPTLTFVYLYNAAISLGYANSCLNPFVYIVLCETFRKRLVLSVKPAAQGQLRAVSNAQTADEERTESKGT

[4] = molecular target: T1, Neuropeptides B/W receptor type 1 (Homo sapiens, UniProt P48145); assay: human NPBW1 receptor blockade, IC50 – cell-based, fluorescence, dose response, set 5, late-stage follow-up (AID 588566); assay type: functional
T1 sequence (P48145 whole entry): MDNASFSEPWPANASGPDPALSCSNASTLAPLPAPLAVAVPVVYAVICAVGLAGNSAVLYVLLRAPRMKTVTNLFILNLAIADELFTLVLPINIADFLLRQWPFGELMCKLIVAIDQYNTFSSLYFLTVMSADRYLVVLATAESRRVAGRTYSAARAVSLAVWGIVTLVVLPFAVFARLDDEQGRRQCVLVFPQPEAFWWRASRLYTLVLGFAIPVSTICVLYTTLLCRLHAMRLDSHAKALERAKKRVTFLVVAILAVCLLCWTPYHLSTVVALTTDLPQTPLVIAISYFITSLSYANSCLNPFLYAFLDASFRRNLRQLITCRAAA

Nonstructural protein 1 = Nonstructural protein 1 (Influenza A virus, UniProt Q194T2); assay type: functional, Influenza A virus (A/California/07/2009(H1N1))
Sequence of Nonstructural protein 1 (Q194T2 whole entry): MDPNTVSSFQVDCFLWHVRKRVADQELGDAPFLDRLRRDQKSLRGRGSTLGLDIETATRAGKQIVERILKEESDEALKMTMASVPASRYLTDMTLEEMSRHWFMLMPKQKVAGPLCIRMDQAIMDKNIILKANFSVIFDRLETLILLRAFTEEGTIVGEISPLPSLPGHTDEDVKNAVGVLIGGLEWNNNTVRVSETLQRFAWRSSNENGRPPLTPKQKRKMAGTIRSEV

[5] = bead-based luminescence quenchers, dual-tagged ARNT – biochemical, AlphaScreen, cherry-pick, artefact control for ARNT-TACC3 interaction inhibitor project, dose response (AID 651705); assay type: functional;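 also: AlphaScreen bead proximity signal that flags compounds interfering with the detection technology; potency reflects signal decrease which marks the compound as an assay artifact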
Interleukin-8 = Interleukin-8 (Homo sapiens, UniProt P10145); assay: Dose Response confirmation of uHTS small molecule hits for cystic fibrosis induced NFkb Inhibitors in a PAF-induced IL8 counterscreen.; assay type: functional; details: read-out: IC50_Mean
Sequence of Interleukin-8 (P10145 whole entry): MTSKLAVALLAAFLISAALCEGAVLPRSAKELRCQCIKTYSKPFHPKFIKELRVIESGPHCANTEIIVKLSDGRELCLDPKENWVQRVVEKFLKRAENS

SMILES: O=C(Nc1nc(-c2ccccn2)cs1)c1ccccc1
- AC50 [1]: 7.19 µM (active)

SMILES: C[N+](C)(C)CC1CCCC(C[N+](C)(C)C)C1=O (centres undefined)
- EC50 [2]: 4.14 µM (active)

SMILES: CSc1ccc(Oc2cnn(Cc3cccc4ccccc34)c(=O)c2Cl)cc1
- IC50 [3]: 9.04 µM (active)
- IC50 [4]: 4.59 µM (active)

SMILES: O=C(C1CCCCN1Cc1cccc2ccccc12)N1CCN(c2ccc([N+](=O)[O-])cc2)CC1 (centres undefined)
- IC50 [3]: > 20 µM (inactive)
- IC50 [4]: > 20 µM (inactive)

SMILES: COc1cc([N+](=O)[O-])cc(/C=N/NC(=O)Cn2cncn2)c1O
- IC50 (Nonstructural protein 1): 10.1 µM (active)
- AC50 [5]: 85 µM (active)

SMILES: Cc1ccc2occ(/C=N/NC(=O)c3ccccc3Br)c(=O)c2c1
- IC50 (Interleukin-8): 3.77 µM (active)
